The target in assay [1] is 5-hydroxytryptamine receptor 2A (Rattus norvegicus, UniProt P14842). Description: Inhibition of [3H]ketanserin binding to 5-hydroxytryptamine 2A receptor rat frontal cortex membrane. The format is tissue-based.
Assay [2] concerns the target D(1A) dopamine receptor (Rattus norvegicus, UniProt P18901). Description: Inhibition of [3H]-SCH- 23390 binding to dopamine receptor D1 rat striatal membrane.
The species named for assay [3] is Rattus norvegicus. Description: Value was obtained against serotonin-induced (5-HT2A) contractions in rat aorta rings. Conditions: read-out: pA2 (converted).
Assay [4] concerns the target D(2) dopamine receptor (Rattus norvegicus, UniProt P61169). Description: Inhibition of [3H]-spiperone […] binding to dopamine receptor D2 rat striatal membrane.

5-hydroxytryptamine receptor 2A, sequence (P14842 whole entry): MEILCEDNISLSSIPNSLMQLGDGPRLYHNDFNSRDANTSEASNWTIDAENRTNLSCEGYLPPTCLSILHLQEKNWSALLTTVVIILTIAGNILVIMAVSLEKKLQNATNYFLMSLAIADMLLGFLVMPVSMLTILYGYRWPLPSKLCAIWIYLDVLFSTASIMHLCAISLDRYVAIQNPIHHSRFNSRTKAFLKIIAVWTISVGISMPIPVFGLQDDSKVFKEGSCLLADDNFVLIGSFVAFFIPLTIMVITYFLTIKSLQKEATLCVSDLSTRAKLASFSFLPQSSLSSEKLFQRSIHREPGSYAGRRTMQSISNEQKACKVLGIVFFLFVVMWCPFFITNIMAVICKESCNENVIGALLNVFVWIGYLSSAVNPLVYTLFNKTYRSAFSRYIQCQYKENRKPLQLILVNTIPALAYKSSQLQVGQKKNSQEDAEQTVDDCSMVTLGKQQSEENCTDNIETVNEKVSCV
D(1A) dopamine receptor, sequence (P18901 whole entry): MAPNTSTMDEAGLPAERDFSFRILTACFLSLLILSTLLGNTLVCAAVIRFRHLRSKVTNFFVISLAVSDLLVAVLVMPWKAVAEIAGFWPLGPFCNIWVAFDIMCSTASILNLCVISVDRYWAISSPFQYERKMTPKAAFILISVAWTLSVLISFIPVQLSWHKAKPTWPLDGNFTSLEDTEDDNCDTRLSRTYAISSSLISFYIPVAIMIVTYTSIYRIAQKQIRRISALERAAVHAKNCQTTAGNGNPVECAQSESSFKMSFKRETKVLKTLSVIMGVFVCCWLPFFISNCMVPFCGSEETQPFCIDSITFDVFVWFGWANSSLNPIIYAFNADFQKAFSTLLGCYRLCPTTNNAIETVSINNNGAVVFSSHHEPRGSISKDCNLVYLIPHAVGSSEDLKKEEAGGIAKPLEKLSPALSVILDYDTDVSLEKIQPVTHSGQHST
D(2) dopamine receptor, sequence (P61169 whole entry): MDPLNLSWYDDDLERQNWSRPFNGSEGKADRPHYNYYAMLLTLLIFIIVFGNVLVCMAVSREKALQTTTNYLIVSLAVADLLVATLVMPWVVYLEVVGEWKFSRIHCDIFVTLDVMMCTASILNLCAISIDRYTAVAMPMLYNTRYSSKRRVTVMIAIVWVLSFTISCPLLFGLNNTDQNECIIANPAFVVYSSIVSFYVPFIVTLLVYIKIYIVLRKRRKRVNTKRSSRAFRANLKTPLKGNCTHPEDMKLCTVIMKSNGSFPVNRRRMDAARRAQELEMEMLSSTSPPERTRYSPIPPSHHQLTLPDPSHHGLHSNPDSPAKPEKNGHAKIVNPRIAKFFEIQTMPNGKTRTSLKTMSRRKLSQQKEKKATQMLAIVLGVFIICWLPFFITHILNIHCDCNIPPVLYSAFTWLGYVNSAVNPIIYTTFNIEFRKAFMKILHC

`O=C(c1ccc(F)cc1)C1CCN(CCC2CCc3ccccc3C2=O)CC1` (stereo not drawn): the Ki in assay [1] was 7.76 nM; in assay [2], 1550 nM. In addition, the Kb in assay [3] was 35.5 nM.

Take `O=C(c1ccc(F)cc1)C1CCN(CCC2CCCc3ccccc3C2=O)CC1` (stereo not drawn): the values for the Ki in assay [1] and in assay [2] were 12.9 nM and 1290 nM, respectively. Further, the Kb in assay [3] was 178 nM.

Regarding `O=C(c1ccc(F)cc1)C1CCN(CCC2Cc3ccccc3C2=O)CC1` (stereo not drawn), the figures for the Ki in assay [1] and in assay [2] were 2.51 nM and 2820 nM, respectively. The Kb in assay [3] was 7.59 nM.

As to `O=C(c1ccc(F)cc1)C1CCN(CCC2Cc3cc(F)ccc3C2=O)CC1` (stereo not drawn), the figures for the Ki in assay [4], in assay [1] and in assay [2] were 47.9 nM, 3.8 nM and 1100 nM, respectively. In addition, the Kb in assay [3] is 7.59 nM.
